In US20260000642A1 (Tay Therapeutics Limited, priority 2022, published 2026):
pIC50: −log10 of the molar value. Values after ≈ are worked out from the molar mass of the structure shown.

Key:
[1] = molecular target: T1, BRD4 BD1 (Homo sapiens, UniProt O60885); experiment: NanoBRET bromodomain assay, NanoLuc-BRD4-BD1 fusion vector in HEK293 cells; assay type: cell-based; settings: top concentration 10 μM
T1 construct: HEK293 cells were transfected using NanoLuc-BRD4-BD1 or NanoLuc-BRD4-BD2 fusion vectors; host or cells: HEK293
From the text: (§1) Bromodomain Assay Procedure

[2] = molecular target: T2, BRD4 BD2 (Homo sapiens, UniProt O60885); experiment: NanoBRET bromodomain assay, NanoLuc-BRD4-BD2 fusion vector in HEK293 cells; assay type: cell-based; settings: NanoBRET, HEK293 cells, top concentration 10 μM
T2 construct: HEK293 cells were transfected using NanoLuc-BRD4-BD1 or NanoLuc-BRD4-BD2 fusion vectors; host or cells: HEK293
From the text: as §1

[3] = Plasma stability assay, rat plasma; assay type: in vitro ADME; settings: 37° C., Method 2 (10 μM)
Method: Exemplary compounds of the disclosure are stable upon incubation in mouse plasma. Stability is expressed as a % remaining after 120 minutes. The experimental methods and results (Table 2) are provided hereinafter.
Plasma Stability Assay, Method 1
From stock solution of compound in 10 mM DMSO, a working solution of 1 mM is prepared by diluting the compound in DMSO. To 398 μL of plasma pre-warmed at 37° C. for 15 minutes), 2 μL of working solution of compound is added, resulting in a final concentration of 5 μM (0.5% DMSO) for the compound. The sample is then incubated at 37° C. Aliquot is withdrawn at specified time-points (0, 15, 30, 60 and 120 mins). The reaction is stopped by addition of 450 μL cold acetonitrile containing internal standard (IS). […] Aliquots of the supernatant is analysed using LC-MS/MS. The percent remaining of the compound at each time point is calculated with respect to the control sample (0 min time-point).
Plasma Stability Assay, Method 2
A working solution of compound (500 μM) is prepared in DMSO (100%). To 735 μL of plasma, 15 μL of working solution of compound is added—resulting in a final concentration of 10 μM (2% DMSO) for the compound. The sample is then incubated at 37° C. Aliquot is withdrawn at time-points—0, 15, 30, 60, 90 and 120 mins. The reaction is stopped by using chilled acetonitrile containing internal standard (IS). The samples are centrifuged and the supernatants analyzed using LC-MS/MS. The percent remaining of the compound at each time point is calculated with respect to the control sample (0 min time-point).

[4] = Thermodynamic solubility in FaSSIF pH 6.5 buffer; assay type: physicochemical; settings: thermodynamic from solid, FaSSIF pH 6.5, 25° C., Method 2 (LCMS)
From the text: BET protein inhibitors with a high aqueous solubility are in some embodiments promising oral drug candidates. Some of the exemplary compounds of the current disclosure have high solubility (measured in μM) in Fasted State Simulated Intestinal Fluid (FaSSIF) pH 6.5 buffer. The experimental methods and results (Table 4) are provided hereinafter.
Thermodynamic Solubility Assay, Method 1
FaSSIF v2 buffer is freshly prepared prior to use according to the suppliers' instructions and the pH adjusted to 6.5 using 1 M NaOH or 1 M HCl as required. From 1 mM working solution of test compound in DMSO, the λmax of the test compound is determined by scanning from 200 nm to 700 nm, in 1 nm steps with an EPOCH UV/Visible spectrophotometer (Biotek Instruments Inc.). A 12-point standard curve of compound concentration versus absorption at λmax is generated via two-fold serial dilutions of the 1 mM working solution with DMSO. Approximately 1 mg of test compound is accurately weighed into an Eppendorf tube and the appropriate volume of FaSSIF buffer is added to make a nominal concentration of 1 mg/mL. […]
FaSSIF buffer was prepared according to the suppliers' instructions and the pH adjusted to 6.5 using 1 M NaOH or 1 M HCl as required. […] The concentration of the test compound in the filtrate was determined by LCMS analysis with reference to the internal standards to determine the solubility in the buffer.

CNC(=O)c1[nH]c(C(=O)NC2CCC(O)CC2)cc1OC(C)c1ccc(Cl)cc1 (single isomer, unassigned) [Example 29, 3-(1-(4-chlorophenyl)ethoxy)-N^5-(4-hydroxycyclohexyl)-N^2-methyl-1H-pyrrole-2,5-dicarboxamide]
pIC50 [1]: ≤ 5.00 | pIC50 [2]: 6.70 to 7.30 | Plasma Stability (% remaining at 120 minutes) Rat [3]: 89% | solubility thermodynamic [4]: 1230 µM (≈ 516 µg/mL)
